From ChEMBL document CHEMBL1201862, “PubChem BioAssay data set” (2004)
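Step 1: Grow cells in 96-well plates. Step 2: Expose to compound for 48 hours at 5 concentrations. Step 3: Interpolate endpoints linearly; if unreached, use highest concentration. The concentration for 50% growth inhibition is given as GI50.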 Activity calls are given as the source filed them. No stated cut-off is given here; in the data, active = GI50 up to about 1.1 µM and inactive = higher.

Experiments:
Assay in all cases: NCI tumour cell line growth inhibition, 48 h
EKVX = system: EKVX
BT-549 = system: BT-549
MOLT-4 = system: MOLT-4
SW-620 = system: SW-620
PC-3 = system: PC-3
HOP-62 = system: HOP-62
NCI-H226 = system: NCI-H226
COLO 205 = system: COLO 205
HT-29 = system: HT-29
SNB-75 = system: SNB-75
NCI-H522 = system: NCI-H522
SF-539 = system: SF-539
UACC-62 = system: UACC-62
ACHN = system: ACHN
U-251 = system: U-251
CAKI-1 = system: CAKI-1
DU-145 = system: DU-145
NCI-H460 = system: NCI-H460
Hs-578T = system: Hs-578T
OVCAR-8 = system: OVCAR-8
LOX IMVI = system: LOX IMVI
IGROV-1 = system: IGROV-1
SK-OV-3 = system: SK-OV-3
HCC 2998 = system: HCC 2998
SF-295 = system: SF-295
HCT-116 = system: HCT-116
Malme-3M = system: Malme-3M
HL-60 = system: HL-60
NCI/ADR-RES = system: NCI/ADR-RES
K562 = system: K562
MDA-MB-435 = system: MDA-MB-435
SNB-19 = system: SNB-19
A549 = system: A549
NCI-H23 = system: NCI-H23
MCF7 = system: MCF7
UACC-257 = system: UACC-257
RXF 393 = system: RXF 393
SN12C = system: SN12C
OVCAR-4 = system: OVCAR-4
MDA-MB-231 = system: MDA-MB-231
OVCAR-5 = system: OVCAR-5
CCRF-CEM = system: CCRF-CEM
SK-MEL-28 = system: SK-MEL-28
HCT-15 = system: HCT-15
SK-MEL-2 = system: SK-MEL-2
MDA-N = system: MDA-N
RPMI-8226 = system: RPMI-8226
UO-31 = system: UO-31
SR = system: SR
OVCAR-3 = system: OVCAR-3
T47D = system: T47D
SK-MEL-5 = system: SK-MEL-5
TK-10 = system: TK-10
SF-268 = system: SF-268
A498 = system: A498
M14 = system: M14
786-0 = system: 786-0
KM12 = system: KM12
HOP-92 = system: HOP-92

CC1=CC23C(COC(=O)C24CO4)C(C(=O)O)=CC3C1C (configuration not stated)
GI50 (EKVX): 40.4 µM (inactive) | GI50 (BT-549): 4.9 µM (inactive) | GI50 (MOLT-4): 17.4 µM (inactive) | GI50 (SW-620): 18.2 µM (inactive) | GI50 (PC-3): 11.9 µM (inactive) | GI50 (HOP-62): 14.1 µM (inactive) | GI50 (NCI-H226): 15.6 µM (inactive) | GI50 (COLO 205): 24.7 µM (inactive) | GI50 (HT-29): 16.2 µM (inactive) | GI50 (SNB-75): 17.7 µM (inactive) | GI50 (NCI-H522): 1.37 µM (inactive) | GI50 (SF-539): 15 µM (inactive) | GI50 (UACC-62): 12.8 µM (inactive) | GI50 (ACHN): 27.4 µM (inactive) | GI50 (U-251): 11.5 µM (inactive) | GI50 (CAKI-1): 9.79 µM (inactive) | GI50 (DU-145): 28.1 µM (inactive) | GI50 (NCI-H460): 18.2 µM (inactive) | GI50 (Hs-578T): 2.78 µM (inactive) | GI50 (OVCAR-8): 15.9 µM (inactive) | GI50 (LOX IMVI): 17 µM (inactive) | GI50 (IGROV-1): 24.1 µM (inactive) | GI50 (SK-OV-3): 4.65 µM (inactive) | GI50 (HCC 2998): 15.4 µM (inactive) | GI50 (SF-295): 24.3 µM (inactive) | GI50 (HCT-116): 16 µM (inactive) | GI50 (Malme-3M): 6 µM (inactive) | GI50 (HL-60): 15 µM (inactive) | GI50 (NCI/ADR-RES): 15.3 µM (inactive) | GI50 (K562): 4.85 µM (inactive) | GI50 (MDA-MB-435): 23.1 µM (inactive) | GI50 (SNB-19): 5.33 µM (inactive) | GI50 (A549): 26.1 µM (inactive) | GI50 (NCI-H23): 27.1 µM (inactive) | GI50 (MCF7): 35.6 µM (inactive) | GI50 (UACC-257): 29 µM (inactive) | GI50 (RXF 393): 3.55 µM (inactive) | GI50 (SN12C): 3.32 µM (inactive) | GI50 (OVCAR-4): 15.2 µM (inactive) | GI50 (MDA-MB-231): 10.9 µM (inactive) | GI50 (OVCAR-5): 24.4 µM (inactive) | GI50 (CCRF-CEM): 5.86 µM (inactive) | GI50 (SK-MEL-28): 2.3 µM (inactive) | GI50 (HCT-15): 24.5 µM | GI50 (SK-MEL-2): 3.08 µM (inactive) | GI50 (MDA-N): 24 µM (inactive) | GI50 (RPMI-8226): 2.37 µM (inactive) | GI50 (UO-31): 27.3 µM (inactive) | GI50 (SR): 17.1 µM (inactive) | GI50 (OVCAR-3): 32.3 µM (inactive) | GI50 (T47D): 6.21 µM (inactive) | GI50 (SK-MEL-5): 25.2 µM (inactive) | GI50 (TK-10): 21.2 µM (inactive) | GI50 (SF-268): 4.93 µM (inactive) | GI50 (A498): 23.3 µM (inactive) | GI50 (M14): 7.55 µM (inactive) | GI50 (786-0): 5.09 µM (inactive) | GI50 (KM12): 6.73 µM (inactive) | GI50 (HOP-92): 8.24 µM (inactive)

O=c1cc(-c2ccccc2)oc2c1ccc1nc3ccccc3c(O)c12
GI50 (EKVX): > 100 µM (inactive) | GI50 (BT-549): 33.5 µM (inactive) | GI50 (MOLT-4): 57.4 µM (inactive) | GI50 (SW-620): > 100 µM (inactive) | GI50 (PC-3): > 100 µM (inactive) | GI50 (HOP-62): 88.1 µM (inactive) | GI50 (NCI-H226): > 100 µM (inactive) | GI50 (COLO 205): > 100 µM (inactive) | GI50 (HT-29): > 100 µM (inactive) | GI50 (SNB-75): 34.9 µM (inactive) | GI50 (NCI-H522): 39.9 µM (inactive) | GI50 (SF-539): 33 µM (inactive) | GI50 (UACC-62): 67.1 µM (inactive) | GI50 (ACHN): 43.5 µM (inactive) | GI50 (U-251): 57.3 µM (inactive) | GI50 (CAKI-1): 60.7 µM (inactive) | GI50 (DU-145): 61.2 µM (inactive) | GI50 (NCI-H460): 14.7 µM (inactive) | GI50 (Hs-578T): 59.4 µM (inactive) | GI50 (OVCAR-8): 80.5 µM (inactive) | GI50 (LOX IMVI): 12.5 µM (inactive) | GI50 (IGROV-1): > 100 µM (inactive) | GI50 (SK-OV-3): 43.7 µM (inactive) | GI50 (HCC 2998): 62.8 µM (inactive) | GI50 (SF-295): 49.4 µM (inactive) | GI50 (HCT-116): 26.4 µM (inactive) | GI50 (Malme-3M): > 100 µM (inactive) | GI50 (HL-60): 59.7 µM (inactive) | GI50 (NCI/ADR-RES): 42.4 µM (inactive) | GI50 (K562): > 100 µM (inactive) | GI50 (MDA-MB-435): > 100 µM (inactive) | GI50 (SNB-19): > 100 µM (inactive) | GI50 (A549): 45.1 µM (inactive) | GI50 (NCI-H23): 89.1 µM (inactive) | GI50 (MCF7): 36.4 µM (inactive) | GI50 (UACC-257): > 100 µM (inactive) | GI50 (RXF 393): 31.6 µM (inactive) | GI50 (SN12C): 66.1 µM (inactive) | GI50 (OVCAR-4): 34.8 µM (inactive) | GI50 (MDA-MB-231): > 100 µM (inactive) | GI50 (OVCAR-5): > 100 µM (inactive) | GI50 (CCRF-CEM): 54.6 µM (inactive) | GI50 (SK-MEL-28): > 100 µM (inactive) | GI50 (HCT-15): 42.3 µM | GI50 (SK-MEL-2): > 100 µM (inactive) | GI50 (MDA-N): > 100 µM (inactive) | GI50 (RPMI-8226): 51.1 µM (inactive) | GI50 (UO-31): 80.2 µM (inactive) | GI50 (SR): 40.7 µM (inactive) | GI50 (OVCAR-3): 79.1 µM (inactive) | GI50 (T47D): 40.8 µM (inactive) | GI50 (SK-MEL-5): 47.6 µM (inactive) | GI50 (TK-10): 60.1 µM (inactive) | GI50 (SF-268): 39.8 µM (inactive) | GI50 (A498): 27.5 µM (inactive) | GI50 (M14): > 100 µM (inactive) | GI50 (786-0): 42 µM (inactive) | GI50 (KM12): 16.7 µM (inactive) | GI50 (HOP-92): > 100 µM (inactive)

Cc1ccc2c(c1)nc1n2C(N)=Nc2ccccc2S1
GI50 (EKVX): 36.4 µM (inactive) | GI50 (BT-549): > 100 µM (inactive) | GI50 (MOLT-4): 4.66 µM (inactive) | GI50 (SW-620): 40 µM (inactive) | GI50 (PC-3): 75 µM (inactive) | GI50 (HOP-62): > 83.4 µM (inactive) | GI50 (NCI-H226): 30.3 µM (inactive) | GI50 (COLO 205): 14.8 µM (inactive) | GI50 (HT-29): 15.8 µM (inactive) | GI50 (SNB-75): > 54.6 µM (inactive) | GI50 (NCI-H522): > 63.2 µM (inactive) | GI50 (SF-539): > 95.5 µM (inactive) | GI50 (UACC-62): > 60.8 µM (inactive) | GI50 (ACHN): 59.7 µM (inactive) | GI50 (U-251): > 27.9 µM (inactive) | GI50 (CAKI-1): > 100 µM (inactive) | GI50 (DU-145): > 69.8 µM (inactive) | GI50 (NCI-H460): 5.92 µM (inactive) | GI50 (Hs-578T): > 73.5 µM (inactive) | GI50 (OVCAR-8): 25.5 µM (inactive) | GI50 (LOX IMVI): 3.51 µM (inactive) | GI50 (IGROV-1): 6.4 µM (inactive) | GI50 (SK-OV-3): > 100 µM (inactive) | GI50 (HCC 2998): 51.3 µM (inactive) | GI50 (SF-295): 47.6 µM (inactive) | GI50 (HCT-116): 4.4 µM (inactive) | GI50 (Malme-3M): > 100 µM (inactive) | GI50 (HL-60): 2.67 µM (inactive) | GI50 (NCI/ADR-RES): 43.4 µM (inactive) | GI50 (K562): 5.79 µM (inactive) | GI50 (MDA-MB-435): 71.1 µM (inactive) | GI50 (SNB-19): 35.8 µM (inactive) | GI50 (A549): 25.4 µM (inactive) | GI50 (NCI-H23): 28.7 µM (inactive) | GI50 (MCF7): > 27.2 µM (inactive) | GI50 (UACC-257): > 67.5 µM (inactive) | GI50 (RXF 393): > 100 µM (inactive) | GI50 (SN12C): > 92.7 µM (inactive) | GI50 (OVCAR-4): > 100 µM (inactive) | GI50 (MDA-MB-231): > 21 µM (inactive) | GI50 (OVCAR-5): > 75.7 µM (inactive) | GI50 (CCRF-CEM): 2.65 µM (inactive) | GI50 (SK-MEL-28): > 100 µM (inactive) | GI50 (HCT-15): 24.2 µM | GI50 (SK-MEL-2): > 100 µM (inactive) | GI50 (MDA-N): 5.78 µM (inactive) | GI50 (RPMI-8226): 19.6 µM (inactive) | GI50 (UO-31): 50.4 µM (inactive) | GI50 (SR): 4.7 µM (inactive) | GI50 (OVCAR-3): 43.3 µM (inactive) | GI50 (T47D): 46.6 µM (inactive) | GI50 (SK-MEL-5): 28.2 µM (inactive) | GI50 (TK-10): > 100 µM (inactive) | GI50 (SF-268): 48.1 µM (inactive) | GI50 (A498): 49.1 µM (inactive) | GI50 (M14): 3.44 µM (inactive) | GI50 (786-0): 52.7 µM (inactive) | GI50 (KM12): 43.8 µM (inactive) | GI50 (HOP-92): > 40.6 µM (inactive)
